Measurements: ChEMBL document CHEMBL1147856, “Synthesis, determination of the absolute configuration of tonkinelin, and inhibitory action with bovine heart mitochondrial complex I” (Bioorg Med Chem, 2007)

experiment: Inhibition of NADH-ubiquinone oxidoreductase activity in bovine heart submitochondrial particles; set-up: species or system Bos taurus

Row | SMILES | IC50
1 | CCCCCCCCCCCC[C@H](O)[C@@H]1CC[C@H]([C@H](O)CCCCCCCCCCCCC2=C[C@H](C)OC2=O)O1 [CIS-SOLAMIN] | 2.6 nM
2 | CCCCCCCCCC[C@@H](O)[C@@H]1CC[C@@H]([C@@H]2CC[C@@H]([C@H](O)CCCCCCCCCC(O)CC3=CC(C)OC3=O)O2)O1 (stereo not given in full) [BULLATACIN] | 0.83 nM

Results, then the molecule that gave them:

Row | IC50 | SMILES
3 | 20 nM | CCCCCCCCCCCC[C@H](O)[C@@H](O)CC[C@@H](O)[C@H](O)CCCCCCCCCCCCC1=C[C@H](C)OC1=O [DIHYDROXY-COHIBIN A]
4 | 580 nM | CCCCCCCCCCCCCCCC[C@H](O)[C@@H](O)CCCCCCCCCCCCCCC1=C[C@H](C)OC1=O
5 | 690 nM | CCCCCCCCCCCCCCCC[C@@H](O)[C@H](O)CCCCCCCCCCCCCCC1=C[C@H](C)OC1=O [TONKINELIN]
